According to patent US20060069132A1, “Azolecarboxamide herbicides” (priority 2004, published 2006):

Experiments:
[1] = tested on: giant foxtail; test: Test A pre-/postemergence herbicide test; type: in vivo, Setaria faberi
In short: (§1)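 Visual injury scores on a 0–100 scale (100 = complete control) taken about ten days post-treatment in greenhouse against untreated controls; dash means no result. Treatments: preemergence soil spray and postemergence spray to runoff on one- to two-leaf plants 2 to 10 cm tall, surfactant-containing formulation.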

[2] = tested on: morningglory; test: Test B pre-/postemergence herbicide test; type: in vivo, Ipomoea coccinea; settings: for Morningglory plant response rating: postemergence
In short: (§2)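 Flooded paddy rice and barnyardgrass were treated at the 2-leaf stage; upland plantings received compound either on sown seed or on 1- to 4-leaf seedlings. All were kept 13–15 days in a greenhouse and scored visually, 0–100, relative to untreated plants.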

[3] = tested on: lambsquarters; test: Test B pre-/postemergence herbicide test; type: in vivo, Chenopodium album; settings: for Lambsquarters plant response rating: postemergence
In short: (§3)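 Plants compared with untreated controls 13–15 days post-treatment and given a visual 0–100 injury score. Applications: preemergence to seeds; postemergence at 1- to 4-leaf (2–18 cm); paddy species flooded, 2-leaf stage. Vehicle non-phytotoxic, surfactant included.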

[4] = tested on: Surinam grass; test: Test B pre-/postemergence herbicide test; type: in vivo, Urochloa decumbens; settings: for Surinam Grass plant response rating: postemergence
In short: as §3

[5] = tested on: morningglory; test: Test A pre-/postemergence herbicide test; type: in vivo, Ipomoea spp.
In short: as §1

[6] = tested on: cocklebur; test: Test B pre-/postemergence herbicide test; type: in vivo, Xanthium strumarium; settings: for Cocklebur plant response rating: postemergence
In short: as §2

[7] = tested on: giant foxtail; test: Test B pre-/postemergence herbicide test; type: in vivo, Setaria faberi; settings: for Foxtail, Giant plant response rating: postemergence
In short: as §3

[8] = tested on: large crabgrass; test: Test B pre-/postemergence herbicide test; type: in vivo, Digitaria sanguinalis; settings: for Crabgrass, Large plant response rating: postemergence
In short: as §3

[9] = tested on: velvetleaf; test: Test B pre-/postemergence herbicide test; type: in vivo, Abutilon theophrasti; settings: for Velvetleaf plant response rating: postemergence
In short: as §3

[10] = tested on: pigweed; test: Test B pre-/postemergence herbicide test; type: in vivo, Amaranthus retroflexus; settings: for Pigweed plant response rating: postemergence
In short: as §3

[11] = tested on: blackgrass; test: Test B postemergence herbicide test; type: in vivo, Alopecurus myosuroides; settings: postemergence
In short: (§4)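 After treating 2-leaf paddy plants or 2–18 cm postemergence plants (1 to 4 leaves) with formulated chemical, researchers kept them in a greenhouse for 13–15 days. Effects were judged visually versus controls: 0 indicates none, 100 total control.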

[12] = tested on: barnyardgrass; test: Test B pre-/postemergence herbicide test; type: in vivo, Echinochloa crus-galli; settings: for Barnyardgrass plant response rating: postemergence
In short: as §2

[13] = tested on: redroot pigweed; test: Test A pre-/postemergence herbicide test; type: in vivo, Amaranthus retroflexus
In short: as §1

[14] = tested on: velvetleaf; test: Test A pre-/postemergence herbicide test; type: in vivo, Abutilon theophrasti
In short: as §1

[15] = tested on: wheat; test: Test B postemergence herbicide test; type: in vivo, Triticum aestivum; set-up: key to Wheat plant response rating: 0 = no effect, 100 = complete control; settings: postemergence
In short: as §4

[16] = tested on: ducksalad; test: Test B flooded paddy test; type: in vivo, Heteranthera limosa; settings: 1000 g ai/ha, scale 0 to 100 (0 no effect, 100 complete control)
In short: as §4

[17] = tested on: rice; test: Test B flooded paddy test; type: in vivo, Oryza sativa; settings: 1000 g ai/ha, scale 0 to 100 (0 no effect, 100 complete control)
In short: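 Formulated test chemicals went onto postemergence plants measuring 2 to 18 cm, at one to four leaves. For the paddy assay, species had reached two leaves. Scoring took place 13–15 days later by eye, relative to untreated plants, using 0 for no effect up to 100 for full control.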

[18] = tested on: barnyardgrass; test: Test A pre-/postemergence herbicide test; type: in vivo, Echinochloa crus-galli
In short: as §1

[19] = tested on: small flower umbrella sedge; test: Test B flooded paddy test; type: in vivo, Cyperus difformis; settings: 1000 g ai/ha, scale 0 to 100 (0 no effect, 100 complete control)
In short: as §4

[20] = tested on: large crabgrass; test: Test A pre-/postemergence herbicide test; type: in vivo, Digitaria sanguinalis
In short: as §1

[21] = tested on: wild oat; test: Test B postemergence herbicide test; type: in vivo, Avena fatua; settings: postemergence
In short: as §4

[22] = tested on: barnyardgrass; test: Test B flooded paddy test; type: in vivo, Echinochloa crus-galli; settings: 1000 g ai/ha, scale 0 to 100 (0 no effect, 100 complete control)
In short: as §4

[23] = tested on: corn; test: Test B pre-/postemergence herbicide test; type: in vivo, Zea mays; settings: for Corn plant response rating: postemergence
In short: as §3

[24] = tested on: rice; test: Test B pre-/postemergence herbicide test; type: in vivo, Oryza sativa; settings: 0 = no effect, 100 = complete control, preemergence
In short: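 Greenhouse pot assay with simultaneous preemergence (treated seed) and postemergence (2–18 cm seedlings) applications of surfactant-containing, non-phytotoxic solvent formulations. Response scored visually 13–15 days later on a 0–100 scale, 100 meaning complete control.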

[25] = Postemergence, 500 g ai/ha, 0 to 100 scale, 0 no effect, 100 complete control
[26] = Postemergence, 2000 g ai/ha, 0 to 100 scale, 0 no effect, 100 complete control
[27] = Preemergence, 2000 g ai/ha, visual rating, 0 to 100 scale (0 no effect, 100 complete control)
[28] = preemergence, 500 g ai/ha, visual injury, 0 to 100 scale (0 no effect, 100 complete control)
[29] = 125 g ai/ha, 0 = no effect, 100 = complete control, preemergence
[30] = 125 g ai/ha, visual rating, scale 0 (no effect) to 100 (complete control)
[31] = 500 g ai/ha, visual rating, 0 = no effect, 100 = complete control, preemergence
[32] = 500 g ai/ha, scale 0 to 100, 0 is no effect, 100 is complete control

## CCn1nc(C(C)(C)C)cc1C(=O)Nc1cncc(C(=O)NCC(F)(F)F)n1 [Compound 291]
[1]; [25]
  Foxtail, Giant plant response rating: 30
[1]; [26]
  Plant response rating, Foxtail, Giant: 75
[1]; [27]
  Foxtail, Giant plant response rating: 0
[1]; [28]
  Foxtail, Giant plant response rating: 0
[2]; [29]
  Morningglory plant response rating (0 to 100 scale): 0
[2]; [30]
  Morningglory plant response rating: 0
[2]; [31]
  Plant response rating, Morningglory: 0
[2]; [32]
  Morningglory plant response rating: 40
[3]; [29]
  Lambsquarters plant response rating (0 to 100 scale): 0
[3]; [30]
  Lambsquarters plant response rating: 20
[3]; [31]
  Plant response rating, Lambsquarters: 0
[3]; [32]
  Lambsquarters plant response rating: 60
[4]; [29]
  Surinam Grass plant response rating (0 to 100 scale): 0
[4]; [30]
  Surinam Grass plant response rating: 0
[4]; [31]
  Plant response rating, Surinam Grass: 0
[4]; [32]
  Surinam Grass plant response rating: 60
[5]; [25]
  Morningglory plant response rating: 5
[5]; [26]
  Plant response rating, Morningglory: 10
[5]; [27]
  Morningglory plant response rating: 0
[5]; [28]
  Morningglory plant response rating: 0
[6]; [29]
  Cocklebur plant response rating (0 to 100 scale): 0
[6]; [30]
  Cocklebur plant response rating: 0
[6]; [31]
  Plant response rating, Cocklebur: 0
[6]; [32]
  Cocklebur plant response rating: 10
[7]; [29]
  Foxtail, Giant plant response rating (0 to 100 scale): 0
[7]; [30]
  Foxtail, Giant plant response rating: 10
[7]; [31]
  Plant response rating, Foxtail, Giant: 0
[7]; [32]
  Foxtail, Giant plant response rating: 80
[8]; [29]
  Crabgrass, Large plant response rating (0 to 100 scale): 0
[8]; [30]
  Crabgrass, Large plant response rating: 0
[8]; [31]
  Plant response rating, Crabgrass, Large: 0
[8]; [32]
  Crabgrass, Large plant response rating: 30
[9]; [30]
  Velvetleaf plant response rating: 0
[9]; [31]
  Plant response rating, Velvetleaf: 0
[9]; [32]
  Velvetleaf plant response rating: 60
[10]; [29]
  Pigweed plant response rating (0 to 100 scale): 0
[10]; [30]
  Pigweed plant response rating: 0
[10]; [31]
  Plant response rating, Pigweed: 0
[10]; [32]
  Pigweed plant response rating: 30
[11]; [30]
  Blackgrass plant response rating: 0
[11]; [32]
  Blackgrass plant response rating: 10
[12]; [29]
  Barnyardgrass plant response rating (0 to 100 scale): 0
[12]; [30]
  Barnyardgrass plant response rating: 0
[12]; [31]
  Plant response rating, Barnyardgrass: 0
[12]; [32]
  Barnyardgrass plant response rating: 30
[13]; [25]
  Pigweed plant response rating: 20
[13]; [26]
  Plant response rating, Pigweed: 30
[13]; [27]
  Pigweed plant response rating: 35
[13]; [28]
  Pigweed plant response rating: 0
[14]; [25]
  Velvetleaf plant response rating: 5
[14]; [26]
  Plant response rating, Velvetleaf: 10
[14]; [27]
  Velvetleaf plant response rating: 0
[14]; [28]
  Velvetleaf plant response rating: 0
[15]; [30]
  Wheat plant response rating: 0
[15]; [32]
  Wheat plant response rating: 0
[16]
  Ducksalad plant response rating: 0
[17]
  Rice plant response rating: 0
[18]; [25]
  Barnyardgrass plant response rating: 25
[18]; [26]
  Plant response rating, Barnyardgrass: 40
[18]; [27]
  Barnyardgrass plant response rating: 25
[18]; [28]
  Barnyardgrass plant response rating: 0
[19]
  Sedge, Umbrella plant response rating: 0
[20]; [25]
  Crabgrass, Large plant response rating: 5
[20]; [26]
  Plant response rating, Crabgrass, Large: 25
[20]; [27]
  Crabgrass, Large plant response rating: 10
[20]; [28]
  Crabgrass, Large plant response rating: 0
[21]; [30]
  Oat, Wild plant response rating: 10
[21]; [32]
  Oat, Wild plant response rating: 20
[22]
  Barnyardgrass plant response rating: 0
[23]; [29]
  Corn plant response rating (0 to 100 scale): 0
[23]; [30]
  Corn plant response rating: 0
[23]; [31]
  Plant response rating, Corn: 0
[23]; [32]
  Corn plant response rating: 60
[24]; 125 g ai/ha
  Rice plant response rating (0 to 100 scale): 0
[24]; 500 g ai/ha, visual rating
  Plant response rating, Rice: 0
